The target of one assay is Protease (Human immunodeficiency virus 1, UniProt Q9YQ12). The assay can be described thus: Binding affinity to HIV1 protease.
For assay [1], the system named is Human immunodeficiency virus 1. The assay can be described thus: Ratio of Ki for HIV1 protease V82A mutant to Ki for wild type HIV1 protease.
In assay [2] the target is Human immunodeficiency virus type 1 protease (Human immunodeficiency virus 1, UniProt Q72874, V82A). Put plainly: Binding affinity to HIV1 protease V82A mutant.

Data on 3 compounds can be found in ChEMBL document CHEMBL1143243, “Design, synthesis, evaluation, and crystallographic-based structural studies of HIV-1 protease inhibitors with reduced response to the V82A mutation” (J Med Chem, 2008).

Each structure is given as a SMILES string.

Chain of Protease (Q9YQ12 whole entry): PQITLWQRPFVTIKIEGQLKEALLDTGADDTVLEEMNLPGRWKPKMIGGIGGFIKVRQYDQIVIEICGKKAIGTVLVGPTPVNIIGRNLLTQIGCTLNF

Broadly, the Ki is the dissociation constant of the complex between target and ligand, obtained from inhibition or displacement. In the case of `CC(C)[C@H](NC(=O)N(C)Cc1ccccn1)C(=O)N[C@@H](Cc1ccccc1)[C@H](O)[C@@H](O)[C@H](Cc1ccccc1)NC(=O)[C@@H](NC(=O)N(C)Cc1ccccn1)C(C)C` [A-76928], the Ki on Protease was 1.3 nM; in assay [2], 9 nM. Also, the Ratio Ki in assay [1] came to 7.

On to `CC(C)[C@H](NC(=O)N(C)Cc1ccccn1)C(=O)N[C@@H](CC1CCCCC1)[C@H](O)[C@@H](O)[C@H](CC1CCCCC1)NC(=O)[C@@H](NC(=O)N(C)Cc1ccccn1)C(C)C`, for which the figures for the Ki (at Protease; in assay [2]) were 6 nM and 12 nM, respectively. Further, the Ratio Ki in assay [1] stood at 2.

As to `CC(C)[C@H](NC(=O)N(C)Cc1ccccn1)C(=O)N[C@@H](Cc1ccccc1)[C@H](O)[C@@H](O)[C@H](CC1CCCCC1)NC(=O)[C@@H](NC(=O)N(C)Cc1ccccn1)C(C)C`, the Ki at Protease stood at 3.2 nM. Further, the Ratio Ki in assay [1] was determined as 4.
